Measurements taken from patent publication US11541132B2, “Radiolabeled compounds” (Hoffmann-La Roche Inc., priority 2017, dated 2023).
Read-outs that look alike come from different tables or passages of the source.

Columns and labels:
[1] = target: T1, native aSyn aggregates in A30P transgenic mouse brain sections (Homo sapiens, UniProt P37840, A30P); assay: aSyn in vitro displacement assay ([3H]Example-3 autoradiography); format: binding, mutant human aSyn gene); conditions: for inhibition at 1 µM: read-out: PCT_INHIB A30P @ 1 μM (% displacement of [3H]Example-3)
T1 construct: from tissue; host or cells: brain sections (midbrain and pons as ROI) of A30P transgenic mice, line B6.D2-Tg(Thy1-SNCA*30P)31Pjk

[2] = target: T2, native Aβ aggregates in human AD brain tissue sections (Homo sapiens, UniProt P05067); assay: Aβ in vitro displacement assay (selectivity counterscreen, [3H]Example 3 autoradiography); format: binding; conditions: for inhibition at 1 µM: read-out: sel. counterscreen PCT_INHIB AD @ 1 μM (% displacement of [3H]Example 3)
T2 construct: native Aβ aggregates in human AD brain tissue samples; from tissue; host or cells: human AD brain tissue sections
T2 sequence (P05067 672-713 limits assumed): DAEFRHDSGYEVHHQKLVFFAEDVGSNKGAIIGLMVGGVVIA

[3] = 1 μM compound, 3 nM [3H]Example-3, A30P transgenic mouse brain sections
[4] = 1 μM compound, 3 nM [3H]Example 3, human AD brain sections

Row | Structure (SMILES) | inhibition at 1 µM [1, 3] [%] | inhibition at 1 µM [2, 4] [%] | other results
1 | CC(C)(C)[Si](C)(C)OC(CF)COc1ccc(C(=O)Nc2ccc(N3CCN(c4ccccn4)CC3)cc2)cc1 (racemic) [Example 124, rac-4-(2-((tert-Butyldimethylsilyl)oxy)-3-fluoropropoxy)-N-(4-(4-(pyridin-2-yl)piperazin-1-yl)phenyl)benzamide] |  |  | inhibition at 1 µM [1]: 82%; inhibition at 1 µM [2]: 91%
2 | O=C(Nc1ccc(N2CCN(c3ccccn3)CC2)cc1)c1ccc(OCC(O)CF)cc1 (racemic) [Example 125, rac-4-(3-Fluoro-2-hydroxypropoxy)-N-(4-(4-(pyridin-2-yl)piperazin-1-yl)phenyl)benzamide] | 82 | 92 | 
3 | CC(C)(C)[Si](C)(C)OC(CF)COc1ccc(C(=O)Nc2ccc(N3CCN(c4nccs4)CC3)cc2)cc1 (racemic) [Example 126, rac-4-(2-((tert-Butyldimethylsilyl)oxy)-3-fluoropropoxy)-N-(4-(4-(thiazol-2-yl)piperazin-1-yl)phenyl)benzamide] |  |  | inhibition at 1 µM [1]: 82%; inhibition at 1 µM [2]: 89%
4 | CC(C)(C)[Si](C)(C)OC(CF)COc1ccc(C(=O)Nc2ccc(N3CCN(c4ccc(C#N)cc4)CC3)cc2)cc1 (racemic) [Example 127, rac-4-(2-((tert-Butyldimethylsilyl)oxy)-3-fluoropropoxy)-N-(4-(4-(4-cyanophenyl)piperazin-1-yl)phenyl)benzamide] |  |  | inhibition at 1 µM [1]: 81%; inhibition at 1 µM [2]: 78%
5 | CC(C)(C)[Si](C)(C)OC(CF)COc1ccc(C(=O)Nc2ccc(N3CCN(c4cc(C#N)ccn4)CC3)cc2)cc1 (racemic) [Example 128, rac-4-(2-((tert-Butyldimethylsilyl)oxy)-3-fluoropropoxy)-N-(4-(4-(4-cyanopyridin-2-yl)piperazin-1-yl)phenyl)benzamide] |  |  | inhibition at 1 µM [1]: 92%; inhibition at 1 µM [2]: 98%
6 | N#Cc1ccc(N2CCN(c3ccc(NC(=O)c4ccc(OCC(O)CF)cc4)cc3)CC2)nc1 (racemic) [Example 129, rac-N-(4-(4-(5-Cyanopyridin-2-yl)piperazin-1-yl)phenyl)-4-(3-fluoro-2-hydroxypropoxy)benzamide] | 86 | 94 | 
7 | O=C(Nc1ccc(N2CCN(c3nccs3)CC2)cc1)c1ccc(OCC(O)CF)cc1 (racemic) [Example 130, rac-4-(3-Fluoro-2-hydroxypropoxy)-N-(4-(4-(thiazol-2-yl)piperazin-1-yl)phenyl)benzamide] | 81 | 87 | 
8 | N#Cc1ccc(N2CCN(c3ccc(NC(=O)c4ccc(OCC(O)CF)cc4)cc3)CC2)cc1 (racemic) [Example 131, rac-N-(4-(4-(4-Cyanophenyl)piperazin-1-yl)phenyl)-4-(3-fluoro-2-hydroxypropoxy)benzamide] | 88 | 90 | 
9 | COc1ccc(C(=O)Nc2ccc(N3CCN(c4ccccn4)CC3)cc2)cc1 [Example 3, 4-Methoxy-N-[4-(4-pyridin-2-ylpiperazin-1-yl)phenyl]benzamide] |  |  | inhibition at 3 µM ([1]; 3 μM compound, 3 nM [3H]Example-3, A30P transgenic mouse brain sections, read-out: PCT_INHIB A30P @ 3 μM): 100%; inhibition at 3 µM ([2]; 3 μM compound, 3 nM [3H]Example 3, human AD brain sections, read-out: sel. counterscreen PCT_INHIB AD @ 3 μM): 100%
10 | CN1CCN(c2ccc(C(=O)Nc3ccc(N4CCN(c5ccccn5)CC4)cc3)cc2)CC1 [Example 6, 4-(4-Methylpiperazin-1-yl)-N-(4-(4-(pyridin-2-yl)piperazin-1-yl)phenyl)benzamide] | 83 | 95 | 
11 | O=C(Nc1ccc(N2CCN(c3ccccn3)CC2)cc1)c1ccc(N2CCOCC2)cc1 [Example 8, 4-Morpholino-N-(4-(4-(pyridin-2-yl)piperazin-1-yl)phenyl)benzamide] | 93 | 86 | 
12 | O=C(Nc1ccc(N2CCN(c3ccccn3)CC2)cc1)c1ccc(OCCOCCF)cc1 [Example 12, 4-(2-(2-fluoroethoxy)ethoxy)-N-(4-(4-(pyridin-2-yl)piperazin-1-yl)phenyl) benzamide] | 99 | 99 | 
13 | COc1ccc(C(=O)Nc2ccc(N3CCN(c4nccs4)CC3)cc2)cc1 [Example 13, 4-Methoxy-N-[4-[4-(1,3-thiazol-2-yl)piperazin-1-yl]phenyl]benzamide] | 90 | 103 | 
14 | O=C(Nc1ccc(N2CCN(c3ccccn3)CC2)cc1)c1ccc2c(c1)OCCO2 [Example 14, N-(4-(4-(Pyridin-2-yl)piperazin-1-yl)phenyl)-2,3-dihydrobenzo[b][1,4]dioxine-6-carboxamide] | 91 | 96 | 
15 | O=C(Nc1ccc(N2CCN(c3ccccn3)CC2)cc1)c1ccc2c(c1)OCO2 [Example 15, N-(4-(4-(Pyridin-2-yl)piperazin-1-yl)phenyl)benzo[d][1,3]dioxole-5-carboxamide] | 94 | 98 | 
16 | O=C(Nc1ccc(N2CCN(c3ccccn3)CC2)cc1)c1ccn2ccnc2c1 [Example 16, N-(4-(4-(Pyridin-2-yl)piperazin-1-yl)phenyl)imidazo[1,2-a]pyridine-7-carboxamide] | 87 | 97 | 
17 | O=C(Nc1ccc(N2CCN(c3ccccn3)CC2)cc1)c1ccc2nccn2c1 [Example 17, N-(4-(4-(Pyridin-2-yl)piperazin-1-yl)phenyl)imidazo[1,2-a]pyridine-6-carboxamide] | 87 | 98 | 
18 | Cc1ccc(C(=O)Nc2ccc(N3CCN(c4nccs4)CC3)cc2)nc1 [Example 25, 5-Methyl-N-[4-[4-(1,3-thiazol-2-yl)piperazin-1-yl]phenyl]pyridine-2-carboxamide] | 83 |  | 
19 | O=C(Nc1ccc(N2CCN(c3nccs3)CC2)cc1)c1ccc(N2CCOCC2)cc1 [Example 26, 4-Morpholin-4-yl-N-[4-[4-(1,3-thiazol-2-yl)piperazin-1-yl]phenyl]benzamide] | 93 |  | 
20 | Cc1ccc(C(=O)Nc2ccc(N3CCN(c4nccs4)CC3)cc2)cc1 [Example 27, 4-Methyl-N-[4-[4-(1,3-thiazol-2-yl)piperazin-1-yl]phenyl]benzamide] | 89 |  | 
21 | CN1CCN(c2ccc(C(=O)Nc3ccc(N4CCN(c5nccs5)CC4)cc3)cc2)CC1 [Example 28, 4-(4-Methylpiperazin-1-yl)-N-[4-[4-(1,3-thiazol-2-yl)piperazin-1-yl]phenyl]benzamide] | 82 |  | 

Now from value to molecule, other results behind:

Row | inhibition at 1 µM [1, 3] [%] | inhibition at 1 µM [2, 4] [%] | Structure (SMILES) | other results
22 | 100 | 95 | COc1ccc(C(=O)Nc2ccc(N3CCN(c4ccccn4)CC3)cc2)c(F)c1 [Example 1, 2-Fluoro-4-methoxy-N-(4-(4-(pyridin-2-yl)piperazin-1-yl)phenyl)benzamide] | 
23 | 85 | 93 | O=C(Nc1ccc(N2CCN(c3ccccn3)CC2)cc1)c1ccc(O)cc1 [Example 2, 4-hydroxy-N-(4-(4-(pyridin-2-yl)piperazin-1-yl)phenyl)benzamide] | 
24 | 89 | 91 | COc1ccc(C(=O)Nc2ccc(N3CCN(c4ccc(C)cn4)CC3)cc2)cn1 [Example 4, 6-Methoxy-N-[4-[4-(5-methyl-2-pyridyl)piperazin-1-yl]phenyl]pyridine-3-carboxamide] | 
25 | 99 | 102 | Cc1ccc(C(=O)Nc2ccc(N3CCN(c4ccccn4)CC3)cc2)cc1 [Example 5, 4-Methyl-N-(4-(4-(pyridin-2-yl)piperazin-1-yl)phenyl)benzamide] | 
26 | 90 | 108 | CN(C)c1ccc(C(=O)Nc2ccc(N3CCN(c4ccccn4)CC3)cc2)cc1 [Example 7, 4-(Dimethylamino)-N-(4-(4-(pyridin-2-yl)piperazin-1-yl)phenyl)benzamide] | 
27 | 82 | 96 | O=C(Nc1ccc(N2CCN(c3ccccn3)CC2)cc1)c1ccccc1F [Example 9, 2-Fluoro-N-(4-(4-(pyridin-2-yl)piperazin-1-yl)phenyl)benzamide] | 
28 | 83 | 81 | Cc1ccc(C(=O)Nc2ccc(N3CCN(c4ccccn4)CC3)cc2)c(F)c1 [Example 10, 2-Fluoro-4-methyl-N-(4-(4-(pyridin-2-yl)piperazin-1-yl)phenyl)benzamide] | 
29 | 87 | 86 | COc1ccc(C(=O)Nc2ccc(N3CCN(c4ccccn4)CC3)cc2)c(C)c1 [Example 11, 4-Methoxy-2-methyl-N-(4-(4-(pyridin-2-yl)piperazin-1-yl)phenyl)benzamide] | 
30 | 81 |  | COc1ccc(C(=O)Nc2ccc(N3CCN(c4ccccn4)CC3)nc2)c(C)c1 [Example 19, 4-Methoxy-2-methyl-N-[6-[4-(2-pyridyl)piperazin-1-yl]-3-pyridyl]benzamide] | 
31 | 84 |  | CN1CCN(c2ccc(C(=O)Nc3ccc(N4CCN(c5ccccn5)CC4)nc3)cc2)CC1 [Example 22, 4-(4-Methylpiperazin-1-yl)-N-[6-[4-(2-pyridyl)piperazin-1-yl]-3-pyridyl]benzamide] | 
32 | 82 |  | Cc1ccc(C(=O)Nc2ccc(N3CCN(c4ccccn4)CC3)nc2)c(F)c1 [Example 23, 2-Fluoro-4-methyl-N-[6-[4-(2-pyridyl)piperazin-1-yl]-3-pyridyl]benzamide] | 
33 | 94 |  | COc1ccc(C(=O)Nc2ccc(N3CCN(c4ccccn4)CC3)nc2)cc1 [Example 24, 4-Methoxy-N-[6-[4-(2-pyridyl)piperazin-1-yl]-3-pyridyl]benzamide] | 
